Measurements reported in US11578055B2, “Triazacyclododecansulfonamide (“TCD”)-based protein secretion inhibitors” (KEZAR LIFE SCIENCES, priority 2018, dated 2023).
Where a name gives a salt, the structure may show the parent alone. Read-outs that look alike come from different tables or passages of the source.

Columns and labels:
[1] = In Vitro Microsome Stability Assay (mouse); assay type: in vitro ADME
Outline: (§1)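 Test article, added from a 0.25 mM DMSO stock, was incubated with liver microsomes (20 mg/mL stock) in 0.1 M potassium phosphate at 37° C, with the reaction started by NADPH. Samples were quenched with acetonitrile containing internal standard at 0 and 30 min and analysed by LC-MS/MS. Values are % remaining at 30 min versus 0 min, using IS-normalised AUC ratios.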

[2] = In Vitro Microsome Stability Assay (rat); assay type: in vitro ADME
Outline: as §1

[3] = tested on: multiple myeloma cell line U266B1; test: U266 Cell Viability Assay; assay type: cell-based, human; settings: Homo sapiens, U-266, 48 hr
Outline: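 U266B1 myeloma cells in RPMI 1640 with 10% FBS were treated with compound dilutions for 48 h at 37° C, 5% CO2. Viability was read as CellTiter-Glo luminescence. Data for structures drawn without stereochemistry refer to stereoisomer mixtures.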

[4] = In Vitro Microsome Stability Assay (monkey); assay type: in vitro ADME
Outline: as §1

[5] = tested on: full length TNFα (amino acids 1-233) fused to Gaussia Luciferase; test: Dox Induced TNFα-FL-Gluc Assay; assay type: cell-based; settings: 24 hr, read-out: 24 hr Dox Inducible TNFaFLGluc 293FRT/TO: Mean IC50
Outline: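 Stable Flp-In 293 T-REx line expressing doxycycline-inducible full-length TNFα fused to Gaussia luciferase; cells plated the day before, then treated with compound dilutions in doxycycline-containing medium at 37° C, 5% CO2. Unspecified stereocentres mean stereoisomer mixtures were tested.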

[6] = In Vitro Microsome Stability Assay (human); assay type: in vitro ADME
Outline: as §1

[7] = tested on: PD1 signal sequence plus 10 amino acids fused to Gaussia Luciferase (PD1-ss+10aa/Gaussia Luciferase); test: Dox Induced PD1-ss-Gluc Assay; assay type: cell-based; settings: 24 hr, read-out: 24 hr Dox Inducible PD1ssGluc 293FRT/TO: Mean IC50
Outline: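 Stable Flp-In 293 T-REx line expressing the fusion under tetracycline-inducible control, plated the day before assay. Compound dilutions added with doxycycline and incubated at 37 °C, 5% CO2; unspecified stereocentres mean data refer to stereoisomer mixtures.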

[8] = tested on: multiple myeloma cell line NCl-H929; test: H929 Cell Viability Assay; assay type: cell-based, human
Outline: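 NCI-H929 myeloma cells in RPMI 1640 with 10% FBS were treated with compound dilutions for 48 h at 37 °C, and viability was then read by CellTiter-Glo luminescence. Compounds drawn without stereochemistry were tested as stereoisomer mixtures.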

[9] = U266, read-out: 48 hr U266 Viability Celltiter-Glo: Mean EC50
[10] = Homo sapiens, NCI-H929, 48 h, H929, read-out: 48 hr H929 Viability Celltiter-Glo: Mean EC50
[11] = mouse liver microsomes, 30 min w/ NADPH
[12] = rat liver microsomes, 30 min w/ NADPH
[13] = monkey liver microsomes, 30 min w/ NADPH
[14] = human liver microsomes, 30 min w/ NADPH
[15] = Homo sapiens, NCI-H929, 48 h, H929, Celltiter-Glo

Row | Compound | Liver Microsome Stability-% Left after 30 min w/ NADPH (%) Mouse ([1]; mouse, 30 min, NADPH) | Liver Microsome Stability-% Left after 30 min w/ NADPH (%) Rat ([2]; rat, 30 min, NADPH) | EC50 [3, 9] | Liver Microsome Stability-% Left after 30 min w/ NADPH (%) Monkey ([4]; monkey, 30 min, NADPH) | IC50 ([5]; 293FRT/TO) | Liver Microsome Stability-% Left after 30 min w/ NADPH (%) Human ([6]; human, 30 min, NADPH) | IC50 ([7]; 293FRT/TO) | EC50 [8, 10] | EC50 ([8]; 48 hr, H929, read-out: 48 hr H929 Viability Celltiter-Glo: Mean EC50) | Liver Microsome Stability-% Left after 30 min w/ NADPH (%) Mouse [1, 11] | Liver Microsome Stability-% Left after 30 min w/ NADPH (%) Rat [2, 12] | EC50 ([3]; U266, Celltiter-Glo) | Liver Microsome Stability-% Left after 30 min w/ NADPH (%) Monkey [4, 13] | IC50 ([5]; Dox inducible, 293FRT/TO cells) | Liver Microsome Stability-% Left after 30 min w/ NADPH (%) Human [6, 14] | IC50 ([7]; Dox inducible, 293FRT/TO cells) | EC50 [8, 15]
1 | COc1cccc(S(=O)(=O)N2CCCN(CC3CCCCC3)CCCN(S(=O)(=O)N3CCCCC3)CC3(CC3)C2)c1 [A32, 9-(cyclohexylmethyl)-5-(3-methoxybenzenesulfonyl)-13-(piperidine-1-sulfonyl)-5,9,13-triazaspiro[2.11]tetradecane] | 0.51% | 0.27% | > 25 µM | 0.09% | > 25 µM | 0.06% | > 25 µM | > 25 µM |  |  |  |  |  |  |  |  | 
2 | COc1ccc(S(=O)(=O)N2CCCN(CC3CCCCC3)CCCN(S(=O)(=O)N3CCCCC3)CC3(CC3)C2)cc1 [A31, 9-(cyclohexylmethyl)-5-(4-methoxybenzenesulfonyl)-13-(piperidine-1-sulfonyl)-5,9,13-triazaspiro[2.11]tetradecane] | 0.25% | 0.09% | > 25 µM | 0.03% | > 25 µM | 0.05% | 0.619 µM | > 25 µM |  |  |  |  |  |  |  |  | 
3 | C=C1CN(S(=O)(=O)c2ccc(C)cc2)CCCN(CC2CCCCC2)CCC(C)N(S(=O)(=O)c2ccc(C)cc2)C1 (stereo not drawn) [B1, 5-(cyclohexylmethyl)-2-methyl-11-methylene-1,9-ditosyl-1,5,9-triazacyclododecane hydrochloride] |  |  |  |  |  |  |  |  |  | 0.02% | 0.01% | > 25 µM | 0.02% | > 25 µM | 0.04% | 0.424 µM | > 25 µM
4 | CN(C)c1ccc(S(=O)(=O)N2C/C=C\CN(S(=O)(=O)N3CCC(c4ccccc4)CC3)CCCN(CC3CCCCC3)CCC2)cc1 [B8, 4-{[(11Z)-5-(cyclohexylmethyl)-9-[(4-phenylpiperidin-1-yl)sulfonyl]-1,5,9-triazacyclotridec-11-en-1-yl]sulfonyl}-N,N-dimethylaniline] |  |  |  |  |  |  |  |  |  | 17.1% | 23.8% | > 25 µM | 15.5% | > 25 µM | 22.1% | > 25 µM | > 25 µM
5 | C=C1CN(S(=O)(=O)c2ccc(N(C)C)cc2)CCCN(CC2CCCCC2)CCCN(S(=O)(=O)N2CCc3cc(-c4ccccc4)ccc3C2)C1 [A63, 4-((9-(cyclohexylmethyl)-3-methylene-5-((6-phenyl-3,4-dihydroisoquinolin-2(1H)-yl)sulfonyl)-1,5,9-triazacyclododecan-1-yl)sulfonyl)-N,N-dimethylaniline] | 85.2% | 88.2% | > 25 µM | 84.4% | 1.87 µM | 76.4% | 0.0437 µM | 7.43 µM |  |  |  |  |  |  |  |  | 
6 | CC1CCCN(S(=O)(=O)N2CCCN(CC3CCCCC3)CCCN(S(=O)(=O)c3ccc(N(C)C)cc3)CC3(CC3)C2)C1 (stereo not drawn) [A21, 4-{[9-(cyclohexylmethyl)-13-[(3-methylpiperidin-1-yl)sulfonyl]-5,9,13-triazaspiro[2.11]tetradecan-5-yl]sulfonyl}-N,N-dimethylaniline] | 1.77% | 0.62% | > 25 µM | 0.11% | 10 µM | 0.14% | 0.184 µM | 8.29 µM |  |  |  |  |  |  |  |  | 

Next, values leading:

Row | Liver Microsome Stability-% Left after 30 min w/ NADPH (%) Mouse ([1]; mouse, 30 min, NADPH) | Liver Microsome Stability-% Left after 30 min w/ NADPH (%) Rat ([2]; rat, 30 min, NADPH) | EC50 [3, 9] | Liver Microsome Stability-% Left after 30 min w/ NADPH (%) Monkey ([4]; monkey, 30 min, NADPH) | IC50 ([5]; 293FRT/TO) | Liver Microsome Stability-% Left after 30 min w/ NADPH (%) Human ([6]; human, 30 min, NADPH) | IC50 ([7]; 293FRT/TO) | EC50 [8, 10] | EC50 ([8]; 48 hr, H929, read-out: 48 hr H929 Viability Celltiter-Glo: Mean EC50) | Liver Microsome Stability-% Left after 30 min w/ NADPH (%) Mouse [1, 11] | Liver Microsome Stability-% Left after 30 min w/ NADPH (%) Rat [2, 12] | EC50 ([3]; U266, Celltiter-Glo) | Liver Microsome Stability-% Left after 30 min w/ NADPH (%) Monkey [4, 13] | IC50 ([5]; Dox inducible, 293FRT/TO cells) | Liver Microsome Stability-% Left after 30 min w/ NADPH (%) Human [6, 14] | IC50 ([7]; Dox inducible, 293FRT/TO cells) | EC50 [8, 15] | Compound
7 | 0.15% | 0.25% | > 25 µM | 0.11% | > 25 µM | 0.2% | 0.36 µM | > 25 µM |  |  |  |  |  |  |  |  |  | C=C1CN(S(=O)(=O)c2ccc(N(C)C)cc2)CCCN(CC2CCCCC2)CCCN(S(=O)(=O)N2CCC(C3CCOCC3)CC2)C1 [A78, 4-{[9-(cyclohexylmethyl)-3-methylidene-5-{[4-(oxan-4-yl)piperidin-1-yl]sulfonyl}-1,5,9-triazacyclododecan-1-yl]sulfonyl}-N,N-dimethylaniline]
8 | 10.6% | 0.1% | > 25 µM | 0.06% | > 25 µM | 0.16% | 0.408 µM | > 25 µM |  |  |  |  |  |  |  |  |  | C=C1CN(S(=O)(=O)c2ccc(N(C)C)cc2)CCCN(CC2CCCCC2)CCCN(S(=O)(=O)N2CCC(n3cccn3)CC2)C1 [A79, 4-{[9-(cyclohexylmethyl)-3-methylidene-5-{[4-(1H-pyrazol-1-yl)piperidin-1-yl]sulfonyl}-1,5,9-triazacyclododecan-1-yl]sulfonyl}-N,N-dimethylaniline]
9 | 0.27% | 0.24% | > 25 µM | 0.31% | > 25 µM | 0.24% | 0.651 µM |  | 8.43 µM |  |  |  |  |  |  |  |  | C=C1CN(S(=O)(=O)c2ccc(C)cc2)CCCN(CC2CCCCC2)CCCN(S(=O)(=O)C2CCCCC2)C1 [A5]
10 | 0.79% | 7.69% | > 25 µM | 0.81% | > 25 µM | 2.65% | 0.696 µM | > 25 µM |  |  |  |  |  |  |  |  |  | CN(C)c1ccc(S(=O)(=O)N2CCCN(CC3CCCCC3)CCCN(S(=O)(=O)N3CCC(c4ccccc4)CC3)CCC2)cc1 [A42, 4-{[5-(cyclohexylmethyl)-9-[(4-phenylpiperidin-1-yl)sulfonyl]-1,5,9-triazacyclododecan-1-yl]sulfonyl}-N,N-dimethylaniline]
11 | 64.6% | 74.3% | > 25 µM | 58.2% | > 25 µM | 63% | 0.136 µM | > 25 µM |  |  |  |  |  |  |  |  |  | C=C1CN(S(=O)(=O)c2ccc(N(C)C)cc2)CCCN(CC2CCCCC2)CCCN(S(=O)(=O)N2CC=C(c3cccc(Cl)c3)CC2)C1 [A69, 4-[(5-{[4-(3-chlorophenyl)-1,2,3,6-tetrahydropyridin-1-yl]sulfonyl}-9-(cyclohexylmethyl)-3-methylidene-1,5,9-triazacyclododecan-1-yl)sulfonyl]-N,N-dimethylaniline]
12 | 3.63% | 4.46% | > 25 µM | 1.44% | 1.76 µM | 6.12% | 0.0501 µM | 3.34 µM |  |  |  |  |  |  |  |  |  | C=C1CN(S(=O)(=O)c2ccc(N(C)C)cc2)CCCN(CC2CCCCC2)CCCN(S(=O)(=O)N2CCN(c3ccccc3)[C@H](C)C2)C1 [A46, 4-{[9-(cyclohexylmethyl)-5-{[(3 R)-3-methyl-4-phenylpiperazin-1-yl]sulfonyl}-3-methylidene-1,5,9-triazacyclododecan-1-yl]sulfonyl}-N,N-dimethylaniline]
